From patent US11241437B2, “Heterocyclic compounds, preparation methods and uses thereof” (InventisBio Co., Ltd., priority 2019, dated 2022)
Converted amounts (≈) assume the structure as drawn.

Assays:
Type in all cases: physicochemical
[1] = Manual grinding of Form A and Form B of Compound 2; conditions: ground manually for 5 min
Experimental: About 10-20 mg of Compound 2 in Form A and Form B were ground manually for 5 min, respectively.

[2] = Solubility of Form A of Compound 2 in organic solvents; conditions: for Solubility: organic solvent or mixture
[3] = Solubility of Form A and Form B of Compound 2 in bio-relevant media; conditions: for Solubility: 37° C.; for XRPD patterns of remaining solids: FaSSIF and water, at 24 hours; for solubility at 0.5 h / solubility at 2 h / solubility at 24 h: 37 °C, thermodynamic from solid
Experimental: Solubility in Bio-relevant Media: Form A and Form B was added into SGF, FeSSIF, FaSSIF and water, respectively. The suspensions were kept shaking at 37° C. with 200 rpm for 24 hours. At 0.5 h, 2 h and 24 h, suspensions were filtered and drug concentrations of filtrates were analyzed by HPLC. pH of filtrates was measured at each time point. The remaining solids at 24 hours were characterized by XRPD.

[4] = Solid state stability of Form B of Compound 2
Experimental: Method 2. HPLC analysis was performed with an Agilent HPLC 1260 series instrument. A representative HPLC method used for purity, solubility and stability study for Compound 2 analysis.
Solid State Stability of Form B: About 10 mg of Form B was open placed at 40° C./75% RH and 60° C. for 7 days and at 25° C./92.5% RH for 10 days, respectively. Prepare samples in duplicate (n=2) per condition. The solids were analyzed by XRPD and HPLC (only for 40° C./75% RH and 60° C.).

[5] = Dynamic moisture sorption analysis (DVS) of Form B of Compound 2
Experimental: Method 2. Used for studies with solid state of Compound 2. Moisture sorption/desorption data was collected on IGAsorp Dynamic Moisture Sorption Analyzer. The sample was placed into a tarred sample chamber and automatically weighed. The sample was dried at 50° C. until the humidity was less than 0.3% and cooled to 25° C. The instrument parameters were set as given below.

[6] = Solubility of amorphous Compound 1 in solvents (anti-solvent precipitation screening); conditions: RT
[7] = Solubility of Compound 1 solid forms in bio-relevant media and water; conditions: FaSSIF
Experimental: Solubility Studies: Solubility of Form IV was tested in three bio-relevant media (Simulated Gastric Fluid (SGF), Fasted State Simulated Intestinal Fluid (FaSSIF), and Fed State Simulated Intestinal Fluid (FeSSIF)) and water. […] Form IV (˜10 mg) was weighed into 2 mL of four media to make suspensions respectively, and about 10 mg of the amorphous starting material was also added into 2 mL of FaSSIF. Then all suspensions were shaken at 37° C. with 200 rpm for up to 24 hours. At 0.5, 2 and 24 hours, about 0.7 mL of each suspension was filtered. The filtrate was analyzed by HPLC and pH meter, and the residual solids were also checked by XRPD at 24 hours.

pKa of Compounds 1 and 2 = assay: pKa of Compounds 1 and 2
[8] = Competitive slurry (interconversion) of Form A, Form B and Form C of Compound 2; conditions: RT or 50° C.
Experimental: Interconversion Studies: Competitive slurry of Form A, Form B and Form C was performed in acetone and acetone/water (1/4) at RT or 50° C., with details shown below.

[9] = Interconversion studies of solid forms of Compound 1 (slurry)
Experimental: Interconversion Studies: Equal amounts (˜7 mg) of Form I, II and III were mixed together and then suspended in 0.5 mL of different solvents at room temperature or 50° C., respectively. Residual solids were collected by filtration and characterized at appropriate time. Additionally, Form IV (˜12 mg) was slurried in 0.5 ml, water or MeOH/water (1/4) at RT or 50° C. for 3 days. Residual solids were collected by filtration and analyzed by XRPD.

[10] = Polymorph characterization summary of Compound 1 forms (form stability)
From the text: In the polymorph screening, five XRPD Patterns (FIG. 11) were generated, and four forms were identified including 2 anhydrates and 2 hydrates.

C=CC(=O)N1C[C@H](C)N(c2nc(=O)n(-c3c(C4CC4)ncnc3C3CC3)c3nc(-c4c(N)cccc4F)c(F)cc23)C[C@H]1C (single isomer, unassigned) [Form A]
Crystal form after grinding [1]: unchanged
Solubility in other solvents [2]: practically insoluble
Solubility ([2]; DCM, read-out: Solubility in DCM): > 92000 µg/mL
Solubility ([2]; MeOH, butanone, THF, ACN, acetone, read-out: Solubility in MeOH, butanone, THF, ACN and acetone): 20000 to 33000 µg/mL (≈ 33400 to 55100 µM)
Solubility ([3]; FaSSIF (pH 6.5), 0.5 h): 19 µg/mL (≈ 31.7 µM)
Solubility ([3]; FaSSIF (pH 6.5), 2 h): 29 µg/mL (≈ 48.4 µM)
Solubility ([3]; FaSSIF (pH 6.5), 24 h): 24 µg/mL (≈ 40.1 µM)
Solubility ([3]; FeSSiF (pH 5.0), 0.5 h): 41 µg/mL (≈ 68.5 µM)
Solubility ([3]; FeSSiF (pH 5.0), 2 h): 45 µg/mL (≈ 75.2 µM)
Solubility ([3]; FeSSiF (pH 5.0), 24 h): 42 µg/mL (≈ 70.2 µM)
Solubility ([3]; SGF (pH 1.2), 0.5 h): 67 µg/mL (≈ 112 µM)
Solubility ([3]; SGF (pH 1.2), 2 h): 72 µg/mL (≈ 120 µM)
Solubility ([3]; SGF (pH 1.2), 24 h): 170 µg/mL (≈ 284 µM)
XRPD patterns of remaining solids ([3]; SGF, FeSSIF): unchanged
Solubility ([3]; Water, 0.5 h): 15 µg/mL (≈ 25.1 µM)
Solubility ([3]; Water, 2 h): 25 µg/mL (≈ 41.8 µM)
Solubility ([3]; Water, 24 h): 43 µg/mL (≈ 71.8 µM)

C=CC(=O)N1C[C@H](C)N(c2nc(=O)n(-c3c(C4CC4)ncnc3C3CC3)c3nc(-c4c(N)cccc4F)c(F)cc23)C[C@H]1C (single isomer, unassigned) [Form B]
XRPD ([4]; 25° C./92.5% RH, After 10 d): Unchanged
Purity-7 d ([4]; 40° C./75% RH): 98.97 Area %
XRPD ([4]; 40° C./75% RH, After 7 d): Unchanged
Purity decrease ([4]; 60° C. for 7 days): 0.16%
Purity-7 d ([4]; 60° C.): 98.82 Area %
XRPD ([4]; 60° C., After 7 d): Unchanged
Initial Purity ([4]; initial, before storage): 98.98 Area %
Crystal form after DVS testing [5]: without changing of crystal form
Hygroscopicity (DVS) ([5]; 25° C.): slightly hygroscopic
Water absorbed (DVS) ([5]; at 0-80% RH, 25° C.): ~0.84%
Crystal form after grinding [1]: crystallinity of Form B became weak
solubility at 0.5 h ([3]; FaSSIF, pH 6.5, fassif, FaSSIF (pH 6.5), 0.5 h): 16 µg/mL (≈ 26.7 µM)
solubility at 2 h ([3]; FaSSIF, pH 6.5, fassif, FaSSIF (pH 6.5), 2 h): 51 µg/mL (≈ 85.2 µM)
solubility at 24 h ([3]; FaSSIF, pH 6.5, fassif, FaSSIF (pH 6.5), 24 h): 18 µg/mL (≈ 30.1 µM)
solubility at 0.5 h ([3]; FeSSIF, pH 5, fessif, FeSSiF (pH 5.0), 0.5 h): 44 µg/mL (≈ 73.5 µM)
solubility at 2 h ([3]; FeSSIF, pH 5, fessif, FeSSiF (pH 5.0), 2 h): 43 µg/mL (≈ 71.8 µM)
solubility at 24 h ([3]; FeSSIF, pH 5, fessif, FeSSiF (pH 5.0), 24 h): 37 µg/mL (≈ 61.8 µM)
Solubility ([3]; SGF (pH 1.2), 24 h): 56 µg/mL (≈ 93.5 µM)
solubility at 0.5 h ([3]; SGF, pH 1.2, simulated gastric fluid, SGF (pH 1.2), 0.5 h): 60 µg/mL (≈ 100 µM)
solubility at 2 h ([3]; SGF, pH 1.2, simulated gastric fluid, SGF (pH 1.2), 2 h): 58 µg/mL (≈ 96.9 µM)
XRPD patterns of remaining solids ([3]; SGF, FeSSIF): unchanged
Solubility ([3]; Water, 24 h): 19 µg/mL (≈ 31.7 µM)
solubility at 0.5 h ([3]; water, 0.5 h): 21 µg/mL (≈ 35.1 µM)
solubility at 2 h ([3]; water, 2 h): 20 µg/mL (≈ 33.4 µM)

C=CC(=O)N1C[C@H](C)N(c2nc(=O)n(-c3c(C4CC4)ncnc3C3CC3)c3nc(-c4c(N)cccc4F)c(Cl)cc23)C[C@H]1C [Amorphous material]
Solubility in MTBE, water and heptane [6]: low solubility
Solubility in most solvents [6]: high solubility
Solubility ([7]; 37° C., 0.5 h): 302 µg/mL (≈ 491 µM)
Solubility ([7]; 37° C., 2 h): 263 µg/mL (≈ 428 µM)
Solubility ([7]; 37° C., 24 h): 283 µg/mL (≈ 460 µM)
XRPD-24 h of residual solids ([7]; 37° C., 24 h): unchanged
Solubility in FaSSIF ([7]; time point not stated, listed as amorphous starting material): 300 µg/mL (≈ 488 µM)

C=CC(=O)N1C[C@H](C)N(c2nc(=O)n(-c3c(C4CC4)ncnc3C3CC3)c3nc(-c4c(N)cccc4F)c(Cl)cc23)C[C@H]1C [Compound 1]
pKa (pKa of Compounds 1 and 2): ~3

C=CC(=O)N1C[C@H](C)N(c2nc(=O)n(-c3c(C4CC4)ncnc3C3CC3)c3nc(-c4c(N)cccc4F)c(F)cc23)C[C@H]1C [Compound 2]
pKa (pKa of Compounds 1 and 2): ~3

C=CC(=O)N1C[C@H](C)N(c2nc(=O)n(-c3c(C4CC4)ncnc3C3CC3)c3nc(-c4c(N)cccc4F)c(F)cc23)C[C@H]1C [Form A, Form B and Form C]
Form after competitive slurry ([8]; non-aqueous solvent (acetone), after 1 day): completely converted to Form B
Form after competitive slurry ([8]; solvent-aqueous solution (acetone/water 1/4), after 7 days): showed tendency to convert to Form B

C=CC(=O)N1C[C@H](C)N(c2nc(=O)n(-c3c(C4CC4)ncnc3C3CC3)c3nc(-c4c(N)cccc4F)c(Cl)cc23)C[C@H]1C [Form I, II and III]
XRPD of wet cake ([9]; EA/MTBE (1/4), 50° C., 3 days): Form IV
XRPD of wet cake ([9]; EA/MTBE (1/4), RT, 3 days): Form IV
XRPD of wet cake ([9]; IPA, 50° C., 4 days): Form IV
XRPD of wet cake ([9]; IPA, RT, 3 days): Pattern 1
XRPD of wet cake ([9]; MeOH/Water (1/4), 50° C., 3 days): Form IV
XRPD of wet cake ([9]; MeOH/Water (1/4), RT, 3 days): Form II

C=CC(=O)N1C[C@H](C)N(c2nc(=O)n(-c3c(C4CC4)ncnc3C3CC3)c3nc(-c4c(N)cccc4F)c(Cl)cc23)C[C@H]1C [Form III]
Stability of the solid form [10]: not stable

C=CC(=O)N1C[C@H](C)N(c2nc(=O)n(-c3c(C4CC4)ncnc3C3CC3)c3nc(-c4c(N)cccc4F)c(Cl)cc23)C[C@H]1C [Form II]
Stability of the solid form [10]: not stable
